Data from patent US20260109712A1, “RIFAMYCINS FOR NONTUBERCULOUS MYCOBACTERIA” (priority 2022, published 2026).
≈ marks a conversion by molar mass, not a printed value. Where two headings read alike, the source gives them in different places.

Experiments:
M. abscessus ATCC 19977 = test: MIC assay in 96-well plate format, wild-type strain; type: cell-based, Mycobacterium abscessus; settings: for MICWT: Table 10; for MIC: Mycobacteroides abscessus, ATCC19977
Summary of the method: (§1)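 Two-fold, ten-point dilutions in 7H9 with 2% DMSO; mid-log culture diluted to OD600=0.1 (1×10^7 CFU/mL). Incubated 3 days at 37 °C, shaking 110 RPM; growth = Day 3 minus Day 0 OD600, expressed as percentage of drug-free growth and plotted against concentration. Two biological replicates.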

Δarr M. abscessus = test: MIC assay, isogenic arr-deleted strain; type: cell-based, Mycobacterium abscessus; settings: Table 10
Summary of the method: as §1

[1] = Plasma protein binding assay (rapid equilibrium dialysis); type: in vitro ADME
Summary of the method: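 Rapid equilibrium dialysis ran 4 h at 37° C (300 RPM) with compound-spiked plasma (10,000 ng/mL) on one side and PBS on the other. Each side was then mixed 1:1 […] to equalise matrix before LC-MS/MS quantification.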

Mycobacterium abscessus = test: MIC against Mycobacterium abscessus (strain not given); type: cell-based
CYP3A4 = settings: human, 10 μM
Experimental: The threshold cycle (CT) was measured for each isoform cDNA by real time qRT-PCR. The mRNA level of each isoform was assessed by the relative quantifiation with reference gene (GAPDH) as the normalizer method. The normalized fold induction was calculated by 2^−ΔΔCT method, in which 0.1% DMSO was used as the reference (vehicle control). The induction potential of each test compound was analyzed by comparing its fold induction to a pre-determined cutoff value for each lot of hepatocytes. The hepatocytes lots used in this study were validated using 10 known inducers and 5 known non-inducers for each isozyme. A cutoff value is determined based on the validation study for each hepatocytes lot.

[2] = Mouse pharmacokinetics studies; type: in vivo, CD-1 mice; settings: mouse, in vivo
Experimental: Blood was captured in CB300 blood collection tubes containing K2EDTA and stored on ice. Plasma was recovered after centrifugation and stored at −80° C. until analyzed by high pressure liquid chromatography coupled to tandem mass spectrometry (LC-MS/MS). Pharmacokinetic parameters were calculated using non-compartmental pharmacokinetic analysis. […] Extracts were vortexed for 5 minutes and centrifuged at 4000 RPM for 5 minutes. 75 μL of supernatant was transferred for LC-MS/MS analysis and diluted with 75 μL of Milli-Q deionized water. Rifabutin was purchased from Carbosynth. C25-desacetyl rifabutin and rifabutin-d7 were purchased from Toronto Research Chemical. Verapamil was purchased from Sigma-Aldrich. […] Multiple-reaction monitoring of parent/daughter transitions in electrospray positive-ionization mode was used to quantify all analytes. […] Data processing was performed using Analyst software (version 1.6.2; Applied Biosystems Sciex).

[3] = Mycobacteroides abscessus, 72 h, Table 22, read-out: MICMab
[4] = Table 15, heterocyclic aromatic carbamates, read-out: WT Mab MIC
[5] = Mycobacterium abscessus ATCC 19977, Table 11, read-out: MIC

SMILES | MICWT (M. abscessus ATCC 19977) [µM] | MICΔorr (Δarr M. abscessus) [µM] | MIC (Mycobacterium abscessus; [3]) [µM] | CYP3A4 gene fold-induction at 10 μM (CYP3A4) | ƒu [1] [%] | plasma unbound fraction ([1]; plasma) [%] | MIC (Mycobacterium abscessus; Table 13, read-out: Mab MIC) [µM] | other results
CO[C@H]1/C=C/O[C@@]2(C)Oc3c(C)c(O)c4c(c3C2=O)C2=NC3(CCN(CC(C)C)CC3)NC2=C(NC(=O)/C(C)=C/C=C/[C@H](C)[C@H](O)[C@@H](C)[C@@H](O)[C@@H](C)[C@H](OC(=O)c2ccccc2)[C@@H]1C)C4=O [UMN7] | 0.053 | 0.059 | 0.053 (≈ 0.0482 µg/mL) | 8.6 | – | – | – | fraction unbound at 4 h, 10000 ng/mL ([1]; plasma): 0.0003
CO[C@H]1/C=C/O[C@@]2(C)Oc3c(C)c(O)c4c(c3C2=O)C2=NC3(CCN(CC(C)C)CC3)NC2=C(NC(=O)/C(C)=C/C=C/[C@H](C)[C@H](O)[C@@H](C)[C@@H](O)[C@@H](C)[C@H](OC(=O)c2cccc(C(F)(F)F)c2)[C@@H]1C)C4=O [UMN19] | 0.48 | 0.36 | – | – | 0 | 0 | 0.48 (≈ 0.469 µg/mL) | –
COc1cccc(C(=O)O[C@H]2[C@H](C)[C@H](O)[C@H](C)[C@@H](O)[C@@H](C)/C=C/C=C(\C)C(=O)NC3=C4NC5(CCN(CC(C)C)CC5)N=C4c4c(c(O)c(C)c5c4C(=O)[C@@](C)(O/C=C/[C@H](OC)[C@H]2C)O5)C3=O)c1 [UMN26] | 0.13 | 0.13 | – | – | 0.02 | 0.02 | 0.13 (≈ 0.122 µg/mL) | –
CO[C@H]1/C=C/O[C@@]2(C)Oc3c(C)c(O)c4c(c3C2=O)C2=NC3(CCN(CC(C)C)CC3)NC2=C(NC(=O)/C(C)=C/C=C/[C@H](C)[C@H](O)[C@@H](C)[C@@H](O)[C@@H](C)[C@H](OC(=O)c2cccc(Cl)c2)[C@@H]1C)C4=O [UMN27] | 0.14 | 0.13 | – | – | 0 | 0 | 0.14 (≈ 0.132 µg/mL) | –
CO[C@H]1/C=C/O[C@@]2(C)Oc3c(C)c(O)c4c(c3C2=O)C2=NC3(CCN(CC(C)C)CC3)NC2=C(NC(=O)/C(C)=C/C=C/[C@H](C)[C@H](O)[C@@H](C)[C@@H](O)[C@@H](C)[C@H](OC(=O)c2ccc(-c3ccccc3)cc2)[C@@H]1C)C4=O [UMN28] | 0.85 | 1.00 | – | – | 0 | 0 | 0.85 (≈ 0.837 µg/mL) | –
CO[C@H]1/C=C/O[C@@]2(C)Oc3c(C)c(O)c4c(c3C2=O)C2=NC3(CCN(CC(C)C)CC3)NC2=C(NC(=O)/C(C)=C/C=C/[C@H](C)[C@H](O)[C@@H](C)[C@@H](O)[C@@H](C)[C@H](OC(=O)c2ccncc2)[C@@H]1C)C4=O [UMN47] | 0.017 | 0.017 | – | – | 2.0 | 2.00 | 0.017 (≈ 0.0155 µg/mL) | –
CO[C@H]1/C=C/O[C@@]2(C)Oc3c(C)c(O)c4c(c3C2=O)C2=NC3(CCN(CC(C)C)CC3)NC2=C(NC(=O)/C(C)=C/C=C/[C@H](C)[C@H](O)[C@@H](C)[C@@H](O)[C@@H](C)[C@H](OC(=O)c2ccccn2)[C@@H]1C)C4=O [UMN48] | 0.02 | 0.026 | – | – | 3.0 | 2.95 | 0.02 (≈ 0.0182 µg/mL) | –
CO[C@H]1/C=C/O[C@@]2(C)Oc3c(C)c(O)c4c(c3C2=O)C2=NC3(CCN(CC(C)C)CC3)NC2=C(NC(=O)/C(C)=C/C=C/[C@H](C)[C@H](O)[C@@H](C)[C@@H](O)[C@@H](C)[C@H](OC(=O)c2ccnnc2)[C@@H]1C)C4=O [UMN49] | 0.033 | 0.034 | – | – | 8.2 | 8.22 | 0.033 (≈ 0.0301 µg/mL) | –
CO[C@H]1/C=C/O[C@@]2(C)Oc3c(C)c(O)c4c(c3C2=O)C2=NC3(CCN(CC(C)C)CC3)NC2=C(NC(=O)/C(C)=C/C=C/[C@H](C)[C@H](O)[C@@H](C)[C@@H](O)[C@@H](C)[C@H](OC(=O)c2ccncn2)[C@@H]1C)C4=O [UMN50] | 0.035 | 0.036 | – | – | 7.2 | 7.22 | 0.035 (≈ 0.0319 µg/mL) | –
CO[C@H]1/C=C/O[C@@]2(C)Oc3c(C)c(O)c4c(c3C2=O)C2=NC3(CCN(CC(C)C)CC3)NC2=C(NC(=O)/C(C)=C/C=C/[C@H](C)[C@H](O)[C@@H](C)[C@@H](O)[C@@H](C)[C@H](OC(=O)c2cnccn2)[C@@H]1C)C4=O [UMN51] | 0.03 | 0.027 | – | – | 7.0 | 6.96 | 0.03 (≈ 0.0273 µg/mL) | –
CO[C@H]1/C=C/O[C@@]2(C)Oc3c(C)c(O)c4c(c3C2=O)C2=NC3(CCN(CC(C)C)CC3)NC2=C(NC(=O)/C(C)=C/C=C/[C@H](C)[C@H](O)[C@@H](C)[C@@H](O)[C@@H](C)[C@H](OC(=O)C2CCC2)[C@@H]1C)C4=O [UMN80] | 1.2 | 0.026 | – | – | 0.3 | 0.29 | 1.2 (≈ 1.06 µg/mL) | –
CO[C@H]1/C=C/O[C@@]2(C)Oc3c(C)c(O)c4c(c3C2=O)C2=NC3(CCN(CC(C)C)CC3)NC2=C(NC(=O)/C(C)=C/C=C/[C@H](C)[C@H](O)[C@@H](C)[C@@H](O)[C@@H](C)[C@H](OC(=O)C2CCCC2)[C@@H]1C)C4=O [UMN81] | 1.2 | 0.03 | – | – | 0.05 | 0.05 | 1.2 (≈ 1.08 µg/mL) | –
CO[C@H]1/C=C/O[C@@]2(C)Oc3c(C)c(O)c4c(c3C2=O)C2=NC3(CCN(CC(C)C)CC3)NC2=C(NC(=O)/C(C)=C/C=C/[C@H](C)[C@H](O)[C@@H](C)[C@@H](O)[C@@H](C)[C@H](OC(=O)C2CCCCC2)[C@@H]1C)C4=O [UMN82] | 0.54 | 0.05 | – | – | 0.03 | 0.03 | 1.1 (≈ 1.01 µg/mL) | –
CO[C@H]1/C=C/O[C@@]2(C)Oc3c(C)c(O)c4c(c3C2=O)C2=NC3(CCN(CC(C)C)CC3)NC2=C(NC(=O)/C(C)=C/C=C/[C@H](C)[C@H](O)[C@@H](C)[C@@H](O)[C@@H](C)[C@H](OC(=O)c2cscn2)[C@@H]1C)C4=O [UMN94] | – | – | – | – | 2.9 | – | 0.036 (≈ 0.033 µg/mL) | CL [2]: 5.0 mL/min/kg; F [2]: 77%; Vd [2]: 1.22 L/kg; ƒAUC/MIC [2]: 22.4; AUCp.o. ([2]; po): 25765 ng·h/mL
CO[C@H]1/C=C/O[C@@]2(C)Oc3c(C)c(O)c4c(c3C2=O)C2=NC3(CCN(CC(C)C)CC3)NC2=C(NC(=O)/C(C)=C/C=C/[C@H](C)[C@H](O)[C@@H](C)[C@@H](O)[C@@H](C)[C@H](OC(=O)Nc2ccncn2)[C@@H]1C)C4=O [UMN118] | – | – | 0.032 (≈ 0.0296 µg/mL) | 2.0 | – | – | – | MIC (M. abscessus ATCC 19977; [4]): 0.032 µM (≈ 0.0296 µg/mL); ƒu ([1]; 4 h, 10000 ng/mL): 5.1%
CO[C@H]1/C=C/O[C@@]2(C)Oc3c(C)c(O)c4c(c3C2=O)C2=NC3(CCN(CC(C)C)CC3)NC2=C(NC(=O)/C(C)=C/C=C/[C@H](C)[C@H](O)[C@@H](C)[C@@H](O)[C@@H](C)[C@H](OC(=O)Nc2cccnn2)[C@@H]1C)C4=O [UMN121] | – | – | 0.038 (≈ 0.0352 µg/mL) | 2.7 | – | – | – | MIC (M. abscessus ATCC 19977; [5]): 0.038 µM (≈ 0.0352 µg/mL)
CO[C@H]1/C=C/O[C@@]2(C)Oc3c(C)c(O)c4c(c3C2=O)C2=NC3(CCN(CC(C)C)CC3)NC2=C(NC(=O)/C(C)=C/C=C/[C@H](C)[C@H](O)[C@@H](C)[C@@H](O)[C@@H](C)[C@H](OC(=O)Nc2ccn3nccc3c2)[C@@H]1C)C4=O [UMN123] | – | – | 0.051 (≈ 0.0492 µg/mL) | 1.2 | – | – | – | –
CO[C@H]1/C=C/O[C@@]2(C)Oc3c(C)c(O)c4c(c3C2=O)C2=NC3(CCN(CC(C)C)CC3)NC2=C(NC(=O)/C(C)=C/C=C/[C@H](C)[C@H](O)[C@@H](C)[C@@H](O)[C@@H](C)[C@H](OC(=O)Nc2cccn3ccnc23)[C@@H]1C)C4=O [UMN125] | – | – | 0.03 (≈ 0.0289 µg/mL) | 3.6 | – | – | – | –
CO[C@H]1/C=C/O[C@@]2(C)Oc3c(C)c(O)c4c(c3C2=O)C2=NC3(CCN(CC(C)C)CC3)NC2=C(NC(=O)/C(C)=C/C=C/[C@H](C)[C@H](O)[C@@H](C)[C@@H](O)[C@@H](C)[C@H](OC(=O)Nc2c(C)nc3ccccn23)[C@@H]1C)C4=O [UMN131] | – | – | 0.049 (≈ 0.0479 µg/mL) | 3.0 | – | – | – | MIC (M. abscessus ATCC 19977; [5]): 0.049 µM (≈ 0.0479 µg/mL)
CO[C@H]1/C=C/O[C@@]2(C)Oc3c(C)c(O)c4c(c3C2=O)C2=NC3(CCN(CC(C)C)CC3)NC2=C(NC(=O)/C(C)=C/C=C/[C@H](C)[C@H](O)[C@@H](C)[C@@H](O)[C@@H](C)[C@H](OC(=O)Nc2cscn2)[C@@H]1C)C4=O [UMN132] | – | – | 0.026 (≈ 0.0242 µg/mL) | 1.4 | – | – | – | MIC (M. abscessus ATCC 19977; [4]): 0.026 µM (≈ 0.0242 µg/mL); ƒu ([1]; 4 h, 10000 ng/mL): 1.7%
CO[C@H]1/C=C/O[C@@]2(C)Oc3c(C)c(O)c4c(c3C2=O)C2=NC3(CCN(CC(C)C)CC3)NC2=C(NC(=O)/C(C)=C/C=C/[C@H](C)[C@H](O)[C@@H](C)[C@@H](O)[C@@H](C)[C@H](OC(=O)Nc2cncs2)[C@@H]1C)C4=O [UMN133] | – | – | 0.046 (≈ 0.0428 µg/mL) | 1.7 | – | – | – | MIC (M. abscessus ATCC 19977; [4]): 0.046 µM (≈ 0.0428 µg/mL); ƒu ([1]; 4 h, 10000 ng/mL): 3.0%
